Values of other authors as cited in patent publication US20180008711A1, “TRIPLE ANTIBIOTIC CATIONIC OINTMENT” (priority 2015, published 2018).

Experiments:
bacteria = settings: very low concentrations
[1] = tested on: Staphylococcus aureus (also the methicillin-resistant type, MRSA)
[2] = tested on: Aspergillus brasiliensis (mold)
[3] = tested on: vancomycin-resistant enterococci
[4] = tested on: Klebsiella pneumoniae (carbapenem-resistant enterobacteriaceae)

Row | Substance | bactericidal concentration (bacteria) [mg/1] | fungicidal (fungi) | effective against Pseudomonas aeruginosa (Pseudomonas aeruginosa) | effective against Staphylococcus aureus [1] | effective against Escherichia coli (Escherichia coli) | effective against Candida albicans (Candida albicans (yeast)) | effective against Aspergillus brasiliensis [2] | effective against vancomycin-resistant enterococci [3] | effective against Klebsiella pneumoniae [4]
1 | Polyaminopropylbiguanide [PAPB] | 10 | fungicidal |  |  |  |  |  |  | 
2 | polyhexamethylenebiguanide [PHMB] |  |  | effective | effective | effective | effective | effective | effective | effective
